# Data published in US12115176B2, “Methods and compositions relating to ClbP inhibition” (PRESIDENT AND FELLOWS OF HARVARD COLLEGE, priority 2021, dated 2024).
# “Also recorded” adds a separate entry of the source.
# Assays:
# Escherichia coli NC101 = assay: Bacterial MIC assay (broth dilution); type: cell-based; details: Escherichia coli, NC101, 15 h, read-out: MICs by compound
# Protocol: (§1) MICs of compounds against different bacterial species were determined using a modified version of a broth microdilution protocol which has been previously reported.^1 Briefly, cultures of each species indicated were inoculated from frozen stocks in deoxygenated Wilkins-Chalgren Anaerobic Medium (WCAM) inside of an anerobic chamber with an 92.5% N2/5% CO2/2.5% H2 atmosphere. Cultures were grown for 24-48 hours in a 37° C. incubator at which point an OD600-measurement was taken for each culture and was accordingly diluted in fresh WCAM to an equivalent of OD600=0.01. Diluted cultures were then distributed into the wells of a clear, flat-bottom 384-well plate and the compound of interest was added to a final DMSO concentration of 2% (or DMSO only for positive controls). […] mineral oil (Millipore Sigma) was deposited on top of the cultures and plates were covered with a clear adhesive plate seal. Plates were incubated at 37° C. for 16 hours, at which point the OD600 of all wells was recorded on a SpectraMax M2 plate reader (Molecular Devices).
# [1] = test system: serine hydrolases in E. coli cell lysates; assay: Gel-based ABPP with fluorophosphonate probe (FP); type: binding; details: inhibitor up to 100 μM
# Excerpt: (§2) To further explore other possible targets of inhibitors 1-4, an activity-based protein profiling (ABPP) approach was used to assay their activity against a wide variety of serine hydrolases in bacterial and mammalian proteomes. […] One limitation of this assay is that ClbP is not labeled by the FP probe, so it cannot be observed as a reference for binding. Any other proteins which evade labeling by FP would also not be detected in this assay.
# (§3) Activity-Based Protein Profiling. Bacterial or mammalian cell lysates were normalized to 1 mg/mL protein concentrations in PBS using the DC protein assay (Bio-Rad). 50 μL aliquots of lysates were incubated with compounds at the indicated concentrations (1 μL of a 50X stock in DMSO) for 30 minutes at room temperature and subsequently labeled with 5 μM of fluorophosphonate-PEG(4)-biotin probe (1 μL of a 50X stock in DMSO, synthesized as previously reported)^56 for 1 hour at room temperature. The reactions were mixed with 50 μL of 2X SDS protein loading buffer, boiled for 10 minutes at 95° C., and separated by SDS-PAGE. The labeled proteins were detected by IRdye-conjugated streptavidin (Li-Cor) and visualized using the GellOdyssey™ Imaging System (Li-Cor).^56
# [2] = test system: E. coli NC101 with mouse fecal community; assay: ClbP inhibition in a microbial community; type: cell-based; details: E. coli NC101 plus C57BL/6J mouse fecal community, anaerobic, 1 μM 3, LC-MS
# Protocol: ClbP inhibition in a microbial community. Mouse pellets were aseptically collected from cages and immediately stored at −80° C. until use. One 5 mL starter culture each of E. coli NC101 and E. coli NC101ΔclbP was started from frozen stocks in deoxygenated Brain-Heart Infusion media (BHI) inside an anaerobic chamber under a 95% N215% H2 atmosphere and incubated at 37° C. overnight. Mouse fecal pellets were defrosted in the anaerobic chamber and resuspended in BHI with 10 mL media/100 mg pellet mass. The fecal slurry was then centrifuged at 1000×g for 5 minutes to separate solids and the resulting supernatant was used as the media for all “+ community” conditions. Cultures were incubated in 500 μL volumes in triplicate in a deep-well plate under anaerobic conditions, with a 1:100 inoculum of the appropriate E. coli overnight for the “+E. coli” conditions. All samples contained a final concentration of 1% DMSO, with or without 1 μM inhibitor 3. After 20 hours at 37° C., samples were processed, and the concentration of N-myristoyl-D-asparagine quantified via LC-MS/MS as described above.
# [3] = test system: a variety of bacterial strains from common gut phyla, including E. coli; assay: Turbidity MIC assay, all strains together; type: cell-based; details: Escherichia coli; all strains tested; upper limit tested 200 μM; read-out: MICs in liquid culture
# Excerpt: Compound 3 is an inhibitor of colibactin-associated genotoxicity. Since colibactin is produced in the context of the gut microbiota, it is essential to understand how 3 can affect other members of this community and whether it remains an effective inhibitor under these conditions. […] A turbidity assay was used to determine minimum inhibitory concentrations (MICs) in liquid culture of 1-4 against a variety of bacterial strains from common gut phyla, including E. coli (Table 3).
# as §1
# [4] = test system: serine hydrolases in HEK293T cell lysates; assay: Gel-based ABPP with fluorophosphonate probe (FP); type: binding, human; details: inhibitor up to 100 μM
# Excerpt: as §2, §3
# [5] = test system: HeLa cells infected with NC101; assay: DNA adduct detection by LC-MS; type: cell-based, human; details: 1 μM 3
# Protocol: DNA adduct detection. Infections for DNA adduct detection were carried out using the protocol described above in 6-well plates where all volumes and cell numbers were increased by a factor of 4 accordingly. After trypsinization, cell pellets were frozen at −80° C. until analysis. DNA was isolated from cells as previously reported.^15 DNA samples (100 μL, 31-48 μg) in silanized glass vials were incubated at 80° C. for 1 hour. After the incubation, samples were allowed to cool to room temperature, and volumes were increased to 200 μL by adding LC-MS grade water. Samples were filtered using a Centrifree Ultrafiltration Device (30K molecular weight, Millipore Sigma) at 2000× g for 15 minutes. Samples were dried under vacuum and stored at −20° C. Mass spectrometric data was acquired with the following conditions. The dried samples were reconstituted in 10 μL of H2O and 4 μL of the resulting solution were injected onto an UltiMate 3000 RSLCnano UPLC (Thermo Fisher Scientific) system equipped with a 5 μL injection loop. Separation was performed with a capillary column (75 μm ID, 20 cm length, 10 μm orifice) created by hand packing a commercially available fused-silica emitter (New Objective, Woburn, MA) with 5 μm Luna C18 bonded separation media (Phenomenex, Torrance, CA). […]
structure (smiles),measurement,setting,value
CC1(C)OB([C@@H](CC(N)=O)NC(=O)CCCc2ccccc2)OC1(C)C [Compound 3],MIC,Escherichia coli NC101,> 200 µM
same,change in protein labeling by FP probe,[1],does not identify any significant targets
same,production of prodrug scaffold in a complex microbial community,[2],reduce the release of N-myristoyl-Asn; also recorded: fully suppressed production of the prodrug scaffold; also recorded: can selectively block colibactin biosynthesis; also recorded: can still effectively block colibactin production
same,MIC,[3],> 200 µM
same,change in protein labeling by FP probe,[4],does not identify any significant targets
same,colibactin-derived DNA adduct formation,[5],could effectively suppress formation of a colibactin-derived DNA adduct; also recorded: sufficient to suppress adduct formation to a degree similar to genetic deletion of clbP; also recorded: prevents
